Source: ChEMBL document CHEMBL1649449, “Antifungal activities of natural and synthetic iron chelators alone and in combination with azole and polyene antibiotics against Aspergillus fumigatus” (Antimicrob Agents Chemother, 2009)

System: Aspergillus fumigatus
Assay: Antifungal activity against Aspergillus fumigatus B5233 conidia after 16 hrs by fluorescence-based microplate assay at pH 7.2
Format: functional, organism-based
Settings: B5233, 16 h

Row | Compound | IC50
1 | Cc1cc(C2CCCCC2)n(O)c(=O)c1 [CICLOPIROX] | 4220 nM
2 | Cc1c(O)c(=O)ccn1C [DEFERIPRONE] | 1290 nM
